Organism: Rattus norvegicus
Assay: Open TG-GATES - Regimen: Daily Repeat
Type: toxicity, organism-based, Sprague-Dawley
Parameters: regimen Daily Repeat, gender Male, age 6 weeks
Conditions: in vivo, po, 400 mg/kg, route gavage, dose level High; for KIDNEY_L / KIDNEY_R / KIDNEY_TOTAL: tissue Kidney; for LIVER: tissue Liver; for ALP / ALT / AST / BUN / CRE / Ca / DBIL / IP / K / LDH / Na / PL / RALB / TBIL / TC / TG / TP / gamma-GTP: tissue Plasma

CCC(C)(C)C(=O)O[C@H]1C[C@@H](C)C=C2C=C[C@H](C)[C@H](CC[C@@H]3C[C@@H](O)CC(=O)O3)[C@H]21 [SIMVASTATIN]
Lym (72 h, tissue Blood, time 3 day): 72.4%
MCHC (72 h, tissue Blood, time 3 day): 33.3%
Mono (72 h, tissue Blood, time 3 day): 5.8%
Neu (72 h, tissue Blood, time 3 day): 20.6%
PT (72 h, tissue Blood, time 3 day): 15.6 s
Plat (72 h, tissue Blood, time 3 day): 126.8 x10_4/uL
RBC (72 h, tissue Blood, time 3 day): 699.4 x10_4/ul
Ret (72 h, tissue Blood, time 3 day): 2.6%
WBC (72 h, tissue Blood, time 3 day): 96.5 x10_2/uL
KIDNEY_L (72 h, time 3 day): 0.9 g
KIDNEY_R (72 h, time 3 day): 0.9 g
KIDNEY_TOTAL (72 h, time 3 day): 1.8 g
LIVER (72 h, time 3 day): 9.1 g
ALP (72 h, time 3 day): 613.8 IU/L
ALT (72 h, time 3 day): 173.4 IU/L
AST (72 h, time 3 day): 134 IU/L
BUN (72 h, time 3 day): 15 mg/dL
CRE (72 h, time 3 day): 0.5 mg/dL
Ca (72 h, time 3 day): 10 mg/dL
DBIL (72 h, time 3 day): 0.012 mg/dL
IP (72 h, time 3 day): 6.9 mg/dL
K (72 h, time 3 day): 5 meq/L
LDH (72 h, time 3 day): 155.8 IU/L
Na (72 h, time 3 day): 137.2 meq/L
PL (72 h, time 3 day): 82.2 mg/dL
RALB (72 h, time 3 day): 4 g/dL
TBIL (72 h, time 3 day): 0.4 mg/dL
TC (72 h, time 3 day): 51.4 mg/dL
TG (72 h, time 3 day): 17.6 mg/dL
TP (72 h, time 3 day): 5.3 g/dL
gamma-GTP (72 h, time 3 day): 1.6 IU/L
TERMINAL_BW ([…], time 7 day): 208 g
TERMINAL_BW ([…], time 14 day): 268.6 g
TERMINAL_BW ([…], time 28 day): 365.2 g
Bas ([…], tissue Blood, time 7 day): 0%
Eos ([…], tissue Blood, time 7 day): 1%
Fbg ([…], tissue Blood, time 7 day): 212.2 mg/dL
Hb ([…], tissue Blood, time 7 day): 13.7 g/dL
Ht ([…], tissue Blood, time 7 day): 41.7%
Lym ([…], tissue Blood, time 7 day): 78%
MCHC ([…], tissue Blood, time 7 day): 32.8%
Mono ([…], tissue Blood, time 7 day): 7.5%
Neu ([…], tissue Blood, time 7 day): 13.5%
PT ([…], tissue Blood, time 7 day): 12.8 s
Plat ([…], tissue Blood, time 7 day): 138.7 x10_4/uL
RBC ([…], tissue Blood, time 7 day): 658.2 x10_4/ul
Ret ([…], tissue Blood, time 7 day): 3.4%
WBC ([…], tissue Blood, time 7 day): 98.8 x10_2/uL
Bas ([…], tissue Blood, time 14 day): 0%
Eos ([…], tissue Blood, time 14 day): 1%
Fbg ([…], tissue Blood, time 14 day): 255.2 mg/dL
Hb ([…], tissue Blood, time 14 day): 13.5 g/dL
Ht ([…], tissue Blood, time 14 day): 40.7%
Lym ([…], tissue Blood, time 14 day): 72.8%
MCHC ([…], tissue Blood, time 14 day): 33.1%
Mono ([…], tissue Blood, time 14 day): 9.5%
Neu ([…], tissue Blood, time 14 day): 17.2%
PT ([…], tissue Blood, time 14 day): 12.1 s
Plat ([…], tissue Blood, time 14 day): 148 x10_4/uL
RBC ([…], tissue Blood, time 14 day): 673.5 x10_4/ul
Ret ([…], tissue Blood, time 14 day): 8.1%
WBC ([…], tissue Blood, time 14 day): 114.1 x10_2/uL
Bas ([…], tissue Blood, time 28 day): 0%
Eos ([…], tissue Blood, time 28 day): 1%
Fbg ([…], tissue Blood, time 28 day): 234.2 mg/dL
Hb ([…], tissue Blood, time 28 day): 14.6 g/dL
Ht ([…], tissue Blood, time 28 day): 44%
Lym ([…], tissue Blood, time 28 day): 80.2%
MCHC ([…], tissue Blood, time 28 day): 33.1%
MCV ([…], tissue Blood, time 28 day): 58.5 fL
Mono ([…], tissue Blood, time 28 day): 5.6%
Neu ([…], tissue Blood, time 28 day): 13.8%
PT ([…], tissue Blood, time 28 day): 13 s
Plat ([…], tissue Blood, time 28 day): 130.1 x10_4/uL
RBC ([…], tissue Blood, time 28 day): 753.2 x10_4/ul
Ret ([…], tissue Blood, time 28 day): 3%
WBC ([…], tissue Blood, time 28 day): 117.8 x10_2/uL
KIDNEY_L ([…], time 7 day): 1 g
KIDNEY_R ([…], time 7 day): 1 g
KIDNEY_TOTAL ([…], time 7 day): 1.9 g
KIDNEY_L ([…], time 14 day): 1.2 g
KIDNEY_R ([…], time 14 day): 1.2 g
KIDNEY_TOTAL ([…], time 14 day): 2.4 g
KIDNEY_L ([…], time 28 day): 1.3 g
KIDNEY_R ([…], time 28 day): 1.4 g
KIDNEY_TOTAL ([…], time 28 day): 2.7 g
LIVER ([…], time 7 day): 12.1 g
LIVER ([…], time 14 day): 16 g
LIVER ([…], time 28 day): 20.6 g
ALP ([…], time 7 day): 693.8 IU/L
ALT ([…], time 7 day): 96.2 IU/L
AST ([…], time 7 day): 100.2 IU/L
BUN ([…], time 7 day): 21 mg/dL
CRE ([…], time 7 day): 0.6 mg/dL
Ca ([…], time 7 day): 11.3 mg/dL
DBIL ([…], time 7 day): 0.025 mg/dL
IP ([…], time 7 day): 6.2 mg/dL
K ([…], time 7 day): 4.7 meq/L
LDH ([…], time 7 day): 136 IU/L
Na ([…], time 7 day): 141.2 meq/L
PL ([…], time 7 day): 116.8 mg/dL
RALB ([…], time 7 day): 4.1 g/dL
TBIL ([…], time 7 day): 0.3 mg/dL
TC ([…], time 7 day): 67.5 mg/dL
TG ([…], time 7 day): 36.8 mg/dL
TP ([…], time 7 day): 5.9 g/dL
gamma-GTP ([…], time 7 day): 1.2 IU/L
ALP ([…], time 14 day): 717.5 IU/L
ALT ([…], time 14 day): 100.5 IU/L
AST ([…], time 14 day): 275.8 IU/L
BUN ([…], time 14 day): 19.2 mg/dL
CRE ([…], time 14 day): 0.6 mg/dL
Ca ([…], time 14 day): 10.8 mg/dL
DBIL ([…], time 14 day): 0.0075 mg/dL
IP ([…], time 14 day): 6.7 mg/dL
K ([…], time 14 day): 4.2 meq/L
LDH ([…], time 14 day): 121.2 IU/L
Na ([…], time 14 day): 140 meq/L
PL ([…], time 14 day): 115 mg/dL
RALB ([…], time 14 day): 3.7 g/dL
TBIL ([…], time 14 day): 0.3 mg/dL
TC ([…], time 14 day): 66.5 mg/dL
TG ([…], time 14 day): 60.5 mg/dL
TP ([…], time 14 day): 5.5 g/dL
gamma-GTP ([…], time 14 day): 2.2 IU/L
ALP ([…], time 28 day): 691.8 IU/L
ALT ([…], time 28 day): 55 IU/L
AST ([…], time 28 day): 71.6 IU/L
BUN ([…], time 28 day): 23.6 mg/dL
CRE ([…], time 28 day): 0.6 mg/dL
Ca ([…], time 28 day): 10.9 mg/dL
DBIL ([…], time 28 day): 0.018 mg/dL
IP ([…], time 28 day): 5.6 mg/dL
K ([…], time 28 day): 4.4 meq/L
LDH ([…], time 28 day): 132 IU/L
Na ([…], time 28 day): 142.6 meq/L
PL ([…], time 28 day): 116.2 mg/dL
RALB ([…], time 28 day): 4.1 g/dL
TBIL ([…], time 28 day): 0.3 mg/dL
TC ([…], time 28 day): 57.6 mg/dL
TG ([…], time 28 day): 85.4 mg/dL
TP ([…], time 28 day): 6.1 g/dL
gamma-GTP ([…], time 28 day): 1.2 IU/L

From ChEMBL document CHEMBL3885861, “Open TG-GATES”
